Reference: patent publication US7781417B2, “Cyclodextrin dimers and derivatives thereof, methods for preparing them and their use, in particular, for the solubilizing pharmacologically active substances” (Centre National de la Recherche Scientifique, priority 2003, dated 2010)
Where “and” joins values, the source holds several entries; their conditions need not be identical. Identical values can stand only once. Like-named read-outs stand apart in the source and are kept apart here.

Tests used:
[1] = target: mannose-specific lectin concanavalin A (ConA) (Canavalia ensiformis, UniProt P02866); experiment: ELLA (Enzyme-Linked Lectin Assay): inhibition of the combination of yeast mannan and horse-radish peroxidase-labelled ConA; type: binding; details: for Relative affinity / Relative molar affinity: relative to Me-α-D-Glcp = 1
Method: The affinity of the ureido-, thioureido-, ureidocysteaminyl- and thioureidocysteaminyl-cyclodextrin dimers of the invention which incorporate glucide substituents for specific membrane lectins in vitro is evaluated according to the ELLA (“Enzyme-Linked Lectin Assay”) protocol. Numerous examples of application of this protocol can be found in the article by J. J. Lundquist and E. J. Toon in Chem. Rev. 2002, 102, pp. 555-578. This technique measures the ability of a soluble mono- or oligosaccharide ligand to inhibit the association between a complementary lectin and another reference ligand bound to a plastic support microplate. Thus, the ureido-, thioureido-, ureidocysteaminyl- and thioureidocysteaminyl-cyclodextrin dimers carrying α-D-mannopyranosyl substituents are recognized by concanavalin A or by the mannose-specific lectin of the macrophages, the derivatives with β-lactosyl substituents are recognized by the lactose-specific lectin of Arachys hypogaea or hepatocytes, and the derivatives comprising the tetrasaccharide sialyl-Lewis X substituent are recognized by the selectins of the endothelium involved in the inflammation method.
The affinity of compounds no. 5 to 8 for the mannose-specific lectin concanavalin A (ConA) was evaluated according to the test ELLA protocol. The concentration of compounds no. […] The IC50 values are inversely proportional to the respective affinities.
The microtitration plate cells (Nunc-Immuno™ plates MaxiSorp™) are charged with 100 μl of a yeast mannan stock solution (Sigma, […]) in a saline phosphate buffer solution (PBS; pH 7.3 containing Ca^2+ 0.1 mM and Mn^2+ 0.1 mM) overnight at ambient temperature. The cells are washed (3×300 μl) with a buffer solution containing 0.05% (v/v) Tween 20 (PBTS). This washing protocol is repeated after each incubation during the test. A bovine serum albumin solution (BSA, 1%) in PBS (150 μg/cell) is then added to the cells, followed by incubation for 1 h at 37° C. and then washing.
To determine the optimum lectin concentration for the inhibition studies, 100 μl of a series of Con A solutions labelled with 10^−1 to 10^−5 mg.ml^−1 horse-radish peroxidase in PBS is added to the cells charged with the mannan, followed by treating as indicated above. After incubation at 37° C. for 1 hour, the plates are washed (PBST) and a solution (50 μl) of the diammonium salt of 2,2′-azinobis(3-ethylbenzothiazoline-6-sulphonic) acid (ABTS, 1 mg in 4 ml) in citrate buffer is added (0.2 M; pH 4.0 with 0.015% of oxygenated water). The reaction is stopped after 20 minutes by adding 50 μl/cell sulphuric acid 1 M and the absorbances are measured at 415 nm using an ELISA reader. The sample cells contain the citrate-phosphate buffer. The concentration of lectin marked with peroxidase giving an absorbance value between 0.8 and 1.0 (typically between 10^−2 and 10^−3 mg/ml^−1) was used in the inhibition assays.
For inhibition assays, stock solutions of compounds no. 5 to 8 were used at a concentration of 5 to 7 mg/ml^−1 in PBS. In a series of experiments, ConA marked with horse-radish peroxidase of suitable concentration as indicated above (60 μl/cell) is added to the solutions of each compound (60 μl/cell) in PBS, double-diluted in sequence, in a Nunclon™(Delta) microtitration plate which is incubated at 37° C. for 1 hour. The solutions (100 μl/cell) are then transferred to a microtitration plate charged with mannan and treated as indicated above, then being incubated at 37° C. for 1 hour. The cells are washed (PBST) and ABTS solution added (50 μl/cell). After 20 minutes, the reaction is stopped (sulphuric acid) and the absorbances are measured.
The inhibition percentage is calculated by the formula: […]

[2] = inclusion of Taxotere into the cyclodextrin dimer: solubility of Taxotere in sterile water; type: physicochemical
Method: (§1) Taxotere in the pure state is used to start with and 8.3 mg (9.7 μmol) of this product is dispersed in 1 ml of a solution containing 10 mmol.l^−1 of compound no. 3 in sterile water, then the obtained suspension is stirred at 70° C. until a clear solution is obtained which signals the complexation of the Taxotere.
as §1, with “6.6” for “8.3”, “(7.7” for “(9.7”, “8 mmol/l^−1” for “10 mmol.l^−1”, “6” for “3”
as §1, with “5.8” for “8.3”, “([…]” for “(9.7”, “7 mmol/l^−1” for “10 mmol.l^−1”, “6” for “3”

[3] = solubility in water of the cyclodextrin (dimer) derivative; type: physicochemical
[4] = inhibition of ConA-HRP binding to yeast mannan fixed to microtitration plate, average of three independent experiments, read-out: IC50

Compound | IC50 [1, 4] | Relative affinity [1] | Relative molar affinity [1] | other results
bis[2-[N′-(6^I-deoxycyclomaltoheptaos-6^I-yl)thioureido]ethyl] 2-[N′-[tris(2,3,4,6-tetra-O-acetyl-α-D-mannopyranosyloxy-methyl)methyl]thioureido]lethylamine [compound no. 6] | 1130 µM | 0.76 | 0.38 | stability of the Taxotere complex in solution once formed [2]: remains in solution at ambient temperature
OC[C@H]1O[C@@H]2O[C@H]3[C@H](O)[C@@H](O)[C@@H](O[C@H]4[C@H](O)[C@@H](O)[C@@H](O[C@H]5[C@H](O)[C@@H](O)[C@@H](O[C@H]6[C@H](O)[C@@H](O)[C@@H](O[C@H]7[C@H](O)[C@@H](O)[C@@H](O[C@H]8[C@H](O)[C@@H](O)[C@@H](O[C@H]1[C@H](O)[C@H]2O)O[C@@H]8CO)O[C@@H]7CO)O[C@@H]6CO)O[C@@H]5CNC(=S)NCCN(CCNC(=S)NC[C@H]1O[C@@H]2O[C@H]5[C@H](O)[C@@H](O)[C@@H](O[C@H]6[C@H](O)[C@@H](O)[C@@H](O[C@H]7[C@H](O)[C@@H](O)[C@@H](O[C@H]8[C@H](O)[C@@H](O)[C@@H](O[C@H]9[C@H](O)[C@@H](O)[C@@H](O[C@H]%10[C@H](O)[C@@H](O)[C@@H](O[C@H]1[C@H](O)[C@H]2O)O[C@@H]%10CO)O[C@@H]9CO)O[C@@H]8CO)O[C@@H]7CO)O[C@@H]6CO)O[C@@H]5CO)CCNC(=S)Nc1ccccc1)O[C@@H]4CO)O[C@@H]3CO [compound no. 4, bis[2-[N′-(6^I-deoxycyclomaltoheptaos-6^I-yl)thioureido]ethyl] 2-(N′-phenylthioureido)ethylamine] |  |  |  | solubility in water [3]: 115 g·L^−1 and 62 mmol·L^−1
bis[2-[N′-(6^I-deoxycyclomaltoheptaos-6^I-yl)thioureido]ethyl] 2-[N′-[2-[bis[2-[N′-[tris(α-D-mannopyranosyloxymethyl) methyl]thioureido]ethyl] amino]ethyl]thioureido]ethylamine [compound no. 8] | 49 µM | 17.7 | 2.9 | times more effectively recognized by ConA compared with the monovalent cyclodextrin dimer derivative, compound no. 5 ([1]; versus compound no. 5): up to 25 times
CO[C@H]1O[C@H](CO)[C@@H](O)[C@H](O)[C@H]1O [Me-α-D-Glcp, methyl-α-D-glucopyranoside, reference compound] |  | 1 | 1 | IC50 [1]: 865 µM
bis[2-[N′-(6^I-deoxycyclomaltoheptaos-6^I-yl)thioureido]ethyl] 2- [N′-(α-D-mannopyranosyl)thioureido]ethylamine [compound no. 5] | 1290 µM | 0.67 | 0.67 | 
bis[2-[N′-(6^I-deoxycyclomaltoheptaos-6^I-yl)thioureido]ethyl] 2-(N′-methylthioureido)ethylamine [compound no. 3] |  |  |  | solubility of the Taxotere in a solution of the compound ([2]; 10 mmol.l^−1 of compound in sterile water, stirred at 70° C. until clear): 8300 µg/mL; stability of the Taxotere complex in solution once formed ([2]; ambient temperature, after complexation at 70° C.): remains in solution at ambient temperature
bis[2-[N′-(6^I-deoxycyclomaltoheptaos-6^I-yl)thioureido]ethyl] 2-[N′-[2-[bis[2-[N′-(α-D-mannopyranosyl)thioureido]ethyl] amino]ethyl]thioureido]ethyl amine [compound no. 7] | 265 µM | 3.3 | 1.1 | 
